The values below come from publication PMC4585737, “Lipoproteins/peptides are sepsis-inducing toxins from bacteria that can be neutralized by synthetic anti-endotoxin peptides” (Scientific Reports, 2015).

Entries after “also recorded” stand apart in the source; their conditions may differ.

Test [1] concerns Balb/C mice. In words: Lethal toxemia in galactosamine-sensitized mice. In kind it is in vivo, mouse. To be noted: 200 μg/mouse peptide i.p. after 4 μg FSL-1 + D-galactosamine 18 mg/mouse; n = 6; up to 4 days; Kaplan-Meier, p < 0.05. On the procedure:
Seven-week-old female SPF-free Balb/C mice of 20 g of body weight, approximately, were purchased from Harlan Spain (Harlan Interfauna Iberica S.A., Barcelona, Spain) and randomly distributed in experimental groups (at least 4 animals per group except for the determination of lethal dose (n = 3)). Sample size was calculated based on previous results with the same animal model. Animals were housed in individually ventilated cages (5 mice per cage) bedded with hardwood bedding. Mice were provided ad libitum access to feed and water and lighting was adjusted to a 14-hour light/10-hour dark cycle. During the experiments, the condition of the animals was monitored daily every 4 hours and animals displaying persistent motor ataxia and hunched posture were euthanized.
To determine the lethal dose of FSL-1 in mice, the method of Galanos and collaborators[48] was followed with some modifications. Briefly, animals were intraperitoneally inoculated with increasing amounts of FSL-1 (50 ng, 500 ng, 5 μg and 50 μg) supplemented with 18 mg of D-galactosamine in a final volume of 200 μl of pyrogen-free saline. Galactosamine is known to sensitize mice to pro-inflammatory compounds such as LPS, thus making it possible to use lower amounts of the stimulatory drug[46]. The ability of Aspidasept® to protect mice from FSL-1 dependent lethal toxemia was assessed by co-administering FSL-1 (4 μg/mouse) with D-galactosamine (18 mg/mouse) intraperitoneally.
Results were globally analyzed by means of a Kaplan-Meier survival analysis (SPSS 15.0). When the survival plots were parallel, the data were compared by the log-rank test, whereas the Breslow-Gehan-Wilcoxon test was applied when the plots intersected.

The subject of test [2] is human macrophages. In words: TNFα production in human macrophages stimulated by LPS or LP, and its inhibition by SALP. In kind it is cell-based. On the procedure: In some stimulation experiments, also macrophages were used. Briefly, MNC were isolated from peripheral blood from healthy donors by the Hypaque-Ficoll gradient method. To differentiate the monocytes to macrophages cells were cultivated in Teflon bags in the presence of 2 ng/ml M-CSF in RPMI 1640 medium (endotoxin <0.01 EU/ml; Biochrom, Berlin, Germany) containing 100 U/ml penicillin, 100 μg/ml streptomycin, 2 mM L-glutamine and 4% heat-inactivated human serum type AB at 37 °C and 6% CO2. On day 6, cells were washed with PBS, detached by Trypsin-EDTA treatment and seeded at 1 × 10^6 cells/ml in complete medium in 96-well tissue culture dishes (Nunc, Wiesbaden, Germany). After stimulation of cells with various LP for 4 h, cell-free supernatants of duplicate samples were collected, pooled and stored at −20 °C until determination of cytokine content. Data shown are representative of at least three independent experiments.
LP preparations were pre-warmed for 30 min at 37 °C, and added to the cultures at 20 μl per well. In inhibition experiments, different SALP were added directly after LPS/LP/LTA administration. […]

Test [3] has as its system FSL-1 aggregates. Briefly: FRET intercalation of peptide into FSL-1 aggregates. In kind it is binding. The source says:
The ability of selected peptides to intercalate into LP aggregates was investigated exemplarily for FSL-1 and for LP SitC by FRET as described earlier. Briefly, the LP samples were doubly labelled with the fluorescent phospholipid dyes N-(7-nitrobenz-2-oxa-1,3-diazol-4-yl)-phosphatidyl ethanolamine (NBD-PE) and N-(lissamine rhodamine B sulfonyl)-phosphatidylethanolamine (Rh-PE) (Molecular Probes, Life Technologies). Intercalation of unlabeled molecules into the doubly labeled liposomes leads to probe dilution and to a lower FRET efficiency: Therefore, the emission intensity of the donor ID increases and that of the acceptor IA decreases (for the sake of clarity, only the quotient of the donor and acceptor emission intensity will be shown here).
In all the experiments, the peptides (100 μl of a 100 μM Hepes solution) were added to doubly labelled LP (900 μl of a 10 μM solution) at 50 s after equilibration. NBD-PE was excited at 470 nm and the donor and acceptor fluorescence intensities were monitored at 531 and 593 nm, respectively, and the fluorescence signal ID/IA was recorded for further 250 s. The measurement was repeated twice.

The subject of test [4] is FSL-1. Briefly: Isothermal titration calorimetry of peptide into FSL-1. In kind it is binding. To be noted: LP 0.05 mM, peptide 1 mM titrated in 3 μl portions every 5 min, 37 °C. On the procedure:
(§1) Microcalorimetric measurements of peptide binding to selected LP, i.e., Pam3CSK4 and FSL-1 were performed on a MCS isothermal titration calorimeter (Microcal, Freiburg, Germany) at 37 °C, as previously described. The LP containing solutions (0.05 mM, prepared as described above) were dispensed into the microcalorimetric cell (volume 1.5 ml), and the peptide solutions (1 mM) were loaded into the syringe compartment (volume 0.1 ml). After temperature equilibration, the peptide was titrated in 3 μl aliquots every 5 min into the LP-containing cell under constant stirring and the heat of interaction after each injection measured by the MCS instrument was plotted versus time.

Test [5] relates to Pam3CSK4. Briefly: Isothermal titration calorimetry of peptide into Pam3CSK4. In kind it is binding. On the procedure: as §1
For orientation: ITC needs no label: the signal is the heat of the interaction.

On to “GCKKYRRFRWKFKGKFWFWG [Aspidasept®, synthetic anti-LPS peptide (SALP), 20′mer, anti-septic therapeutic drug candidate]”, for which the “survival of mice challenged with FSL-1” value in test [1] was “significant survival benefit”. In test [2] (stimulus LP SitC 1000 and 100 ng/ml, 10:1 excess of peptide, three independent measurements), the “inhibition of TNFα production” value is on record as “strong inhibition”. Also, the “inhibition of LP-dependent TNFα secretion” value in test [2] (stimulus LP SitC, all tested concentrations, [LP]:[Pep] 1:10 and 1:100 weight%) is reported as “almost totally abrogated”. The “FRET: intercalation on increase in peptide concentration” value in test [3] (FSL-1:Pep19-2.5 1:1 M/M vs 1:0.1 M/M) was “did not lead to a further increase in intercalation”. Moreover, the “FRET: incorporation into the LP aggregate” value in test [3] ([LP]:[Aspidasept] 1:0.1 molar, peptide added after 50 s, ID/IA signal) is recorded as “instantaneous incorporation”. In addition, the “ITC: FSL-1:peptide interaction” value in test [4] is on record as “exothermic reaction with saturation kinetics; also recorded: considerable reaction with saturation characteristics”. The “ITC: Pam3CSK4:peptide interaction” value in test [5] (LP 0.05 mM, peptide 1 mM titrated in 3 μl portions every 5 min, 37 °C) was “weak exothermic reaction; also recorded: no clear thermal reaction”. Moreover, the “affinity of the peptide towards the LP” value in test [5] (Pam3CSK4, concluded from ITC) was “poor affinity”.
